How the values were obtained:
Experiment in all cases: relative viability (nuclei count vs DMSO), 5 days (fraction); higher = more cells survive
[1] = compound: CC1=C(C(=O)N2C=CSC2=N1)CCN3CCC(=C(C4=CC=CC=C4)C5=CC=C(C=C5)F)CC3 + CC(=O)c1c(C)c2cnc(Nc3ccc(N4CCNCC4)cn3)nc2n(C2CCCC2)c1=O [Palbociclib] (partner 0.5 µM)
Outline: (§1)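 The day after seeding in 1536-well plates, lung cancer cell lines were treated by pin tool with a single drug, or with a fixed anchor-drug dose together with five library-drug doses (not always all listed) in √10 steps. After 5 days, a combined fix-and-stain solution (final 0.05% Triton X-100, 1% formaldehyde, 1 ug/ml Hoechst) was added. Nuclei counted on 4× images gave relative viability as treated counts over vehicle counts, reported as the median of duplicate plates.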

[2] = compound: CC1=C(C(=O)N2C=CSC2=N1)CCN3CCC(=C(C4=CC=CC=C4)C5=CC=C(C=C5)F)CC3 + C[C@@H](Oc1cc(-c2cnn(C3CCNCC3)c2)cnc1N)c1c(Cl)ccc(F)c1Cl [Crizotinib] (partner 1 µM)
Outline: as §1

[3] = compound: CC1=C(C(=O)N2C=CSC2=N1)CCN3CCC(=C(C4=CC=CC=C4)C5=CC=C(C=C5)F)CC3 + NC(=O)Nc1cc(-c2cccc(F)c2)sc1C(=O)N[C@H]1CCCNC1 [AZD7762] (partner 0.2 µM)
Outline: as §1

[4] = compound: CC1=C(C(=O)N2C=CSC2=N1)CCN3CCC(=C(C4=CC=CC=C4)C5=CC=C(C=C5)F)CC3 + O=C(CCCCCCC(=O)Nc1ccccc1)NO [Vorinostat] (partner 1 µM)
Outline: as §1

Row | Cell Line | relative viability ([1]; first compound 0.08 µM) | relative viability ([1]; first compound 0.253 µM) | relative viability ([1]; first compound 0.8 µM) | relative viability ([1]; first compound 2.53 µM) | relative viability ([1]; first compound 8 µM) | relative viability ([2]; first compound 0.08 µM) | relative viability ([2]; first compound 0.253 µM) | relative viability ([2]; first compound 0.8 µM) | relative viability ([2]; first compound 2.53 µM) | relative viability ([2]; first compound 8 µM) | relative viability ([3]; first compound 0.08 µM) | relative viability ([3]; first compound 0.253 µM) | relative viability ([3]; first compound 0.8 µM) | relative viability ([3]; first compound 2.53 µM) | relative viability ([3]; first compound 8 µM) | relative viability ([4]; first compound 0.08 µM) | relative viability ([4]; first compound 0.253 µM) | relative viability ([4]; first compound 0.8 µM) | relative viability ([4]; first compound 2.53 µM) | relative viability ([4]; first compound 8 µM)
1 | NCI-H1944 | 0.305 | 0.31 | 0.341 | 0.29 | 0.259 | 1.06 | 1.08 | 1.22 | 1.14 | 1.07 | 0.482 | 0.491 | 0.461 | 0.469 | 0.43 | 0.442 | 0.502 | 0.499 | 0.54 | 0.377
2 | NCI-H1975 | 0.601 | 0.493 | 0.598 | 0.795 | 0.348 | 0.984 | 0.96 | 0.93 | 0.943 | 0.583 | 0.658 | 0.76 | 0.769 | 0.738 | 0.618 | 0.761 | 0.748 | 0.748 | 0.774 | 0.492
3 | NCI-H1993 | 0.583 | 0.619 | 0.592 | 0.705 | 0.614 | 0.708 | – | 0.796 | 0.906 | 0.832 | 0.501 | 0.632 | 0.726 | 0.73 | 0.63 | 0.87 | 0.715 | 0.885 | 0.92 | 0.756
4 | NCI-H2085 | 0.498 | 0.506 | 0.474 | 0.533 | 0.469 | 0.692 | 0.986 | 0.921 | 0.861 | 0.649 | 1.06 | 1.29 | 0.92 | 1.03 | 0.89 | 0.85 | 0.827 | 0.758 | 0.807 | 0.707
5 | NCI-H2087 | 0.279 | 0.237 | 0.236 | 0.227 | 0.238 | 0.818 | 0.813 | 0.94 | 0.944 | 0.525 | 1.21 | 1.36 | 1.58 | 1.24 | 0.506 | 0.865 | 0.591 | 0.859 | 0.625 | 0.485
6 | NCI-H2126 | 0.367 | 0.343 | 0.359 | 0.367 | 0.344 | 1.08 | 1.03 | 1.09 | 1.02 | 0.992 | 1.07 | 0.961 | 1.03 | 1.04 | 0.705 | 0.794 | 0.852 | 0.784 | 0.802 | 0.631
7 | NCI-H2170 | 0.396 | 0.405 | 0.36 | 0.37 | 0.344 | 1.2 | 1.17 | 1.36 | 1.11 | 0.927 | 0.696 | 0.884 | 0.932 | 0.76 | 0.462 | 0.638 | 0.791 | 0.739 | 0.715 | 0.463
8 | NCI-H2347 | 0.358 | 0.428 | 0.434 | 0.442 | 0.461 | 0.692 | 0.801 | 0.675 | 0.508 | 0.684 | 0.603 | 0.692 | 0.773 | 0.895 | 0.553 | 0.538 | 0.603 | 0.573 | 0.579 | 0.453
